Data taken from EP0059258A1, “Pharmaceutical preparations comprising polyprenyl compounds, especially as anti-cancer agents, and pharmaceutical compositions for the prevention and treatment of cancer and skin diseases” (Eisai Co., Ltd., priority 1980, dated 1982).

The compounds below were run on papillomata (assay: Anti-cancer activity: mouse skin papilloma test (7,12-dimethylbenzanthracene / croton oil induced)). Conditions: administered orally as 20 mg/ml solution in groundnut oil, 10 times for 14 days; total diameter on the 14th day vs. prior to administration.
Assay type: in vivo, mouse (ICR strain, female)
Procedure: A mouse (ICR strain, female, 50 days age) was shaved at the back of neck (to the extent of 5 cm^2). 7,12-Dimethylbenzo-[2]-anthracene was dissolved in acetone to give-75 mg /100 ml. solution. The so prepared solution was applied to the mouse on the 60th day of age and further on the 75th day of aqe in the amount of 0.2 ml per mouse.
Croton oil was dissolved in acetone to give 250 mg/ 100 ml solution, and the so prepared solution was applied to the mouse in the amount of 0.2 ml per mouse,-twice a week until the treatment was started. When 3 - 7 papillomata (diamether of 3 - 8 mm for each, and total diameter of 30 - 60 mm ) were produced for a mouse, the treatment was started.
The compound to be tested (test compound) was dissolved in groundnut oil to give 20' mg /ml solution, and administered orally to the mouse. The solution was administered 10 times for 14 days (once a day), and the diameters of the papillomata were measured on the 14th day to determine the total diameter for each mouse. Ratio of increase or decrease of the papillomata was calculated from the total diameter on the 14th day and the total diameter measured prior to the starting of administration of the test compound. This value was adopted' for evaluating the anti-cancer activity.

Compound | Ratio of increase or decrease of papillomas(%)
CC(C)=CCCC(C)=CCCC(C)=CCCC(C)=CC(=O)O [(8), 3,7,11,15-tetramethyl-2,6,10,14-hexadecatetraenoic acid] | −6.5
CC(C)=CCCC(C)=CC=CC(C)=CC=CC(C)=CC(=O)O [(4), 3,7,11,15-tetramethyl-2,4,6,8,10,14-hexadecahexaeno-ic acid] | −26.3
CC(C)=CCCC(C)CCCC(C)=CC=CC(C)=CC(=O)O (stereo not drawn) [(2), 3,7,11,15-tetramethyl-2,4,6,14-hexadecatetraenoic acid] | −19.5
CC(=O)C=CC=C(C)CCC=C(C)CCC=C(C)CCC=C(C)C [(7), 6,10,14,18-tetramethyl-3,5,9,13,17-nonadecapentaen-2-on] | −12.7
CCOC(=O)C=C(C)C=CC=C(C)CCCC(C)CCC=C(C)C (stereo not drawn) [(3), ethyl 3,7,11,15-tetramethyl-2,4,6,14-hexadecatetra-enoate] | −10.2
CC(C)=CCCC(C)=CCCC(C)=CC=CC(C)=CC(N)=O [(5), 3,7,11,15-tetramethyl-2,4,6,10,14-hexadecapentaeno-amide] | −25.5
CC(C)=CCCC(C)=CCCC(C)=CCCC(C)=CC=CC(C)=CC(=O)O [(1), 3,7,11,15,19-pentamethyl-2,4,6,10,14,18-eicosahexa-enoic acid] | −24.0
CCOC(=O)C=C(C)C=CC=C(C)CCC=C(C)CCC=C(C)C [(6), ethyl 3,7,11,15-tetramethyl-2,4,6,10,14-hexadeca-pentaenoate] | −17.5
CC(=O)CCC=C(C)CCC=C(C)CCC=C(C)CCC=C(C)C [(9), 6,10,14,18-tetramethyl-5,9,13,17-nonadecatetraen-2-on] | −8.2
